According to patent US20260015322A1, “DELIVERY OF THERAPEUTIC ALKALOID COMPOUNDS” (priority 2022, published 2026):

Assays:
[1] = Hydrolysis Assay - Condition 1 (SGF); format: physicochemical; conditions: Condition 1: SGF with pepsin pH 1.5, 37° C., 0.5 mM
Experimental: 50 uL of compound (10 mM) in DMSO was diluted into 950 uL of Simulated Gastric Fluid (SGF) with pepsin (pH 1.5) to a final concentration of 0.5 mM. The hydrolysis kinetics were conducted at 37° C. and measured by LCMS at a certain time interval.
(§1) The corresponding LCMS chromatogram were recorded and the conversions were calculated by integration of each peak.
(§2) • 1) LCMS spectra were obtained using Agilent 1200G1956A or SHIMADZU LCMS-2020. • Standard LCMS conditions were as follows (running time 1.55 minutes): • Acidic condition: Mobile Phase A: 0.0375% TFA in water (v/v). Mobile Phase B: 0.01875% TFA in acetonitrile (v/v); Column: Kinetex EVO C18 30*2.1 mm, 5 μm. • Basic condition: Mobile Phase A: 0.025% NH3·H2O in water (v/v). Mobile Phase B: Acetonitrile; Column: Kinetex EVO C18 2.1×30 mm, 5 μm. • 2) Conversion (%)=peak area 1/(peak area 1+peak area 2)*100%, peak area 1 is the integration of hydrolyzed product, peak area 2 is the integration of starting material.

[2] = Hydrolysis Assay - Condition 2 (DI Water); format: physicochemical; conditions: 25° C., 0.5 mM
Experimental: 50 uL of compound (10 mM) in DMSO was diluted into 950 uL of DI water to a final concentration of 0.5 mM. The hydrolysis kinetics were conducted at 25° C. and measured by LCMS at a certain time interval.
as §1, §2

[3] = Plasma Stability Assay (Example A2), mouse plasma; format: in vitro ADME; conditions: Mouse Plasma, 37° C., prodrug remaining
Experimental: (§3) Each test was carried out in duplicate for each time point; 0 min, 15 min, 30 min, 60 min, 120, 240 min. […]

[4] = Plasma Stability Assay (Example A2), human plasma; format: in vitro ADME; conditions: 37° C., prodrug remaining
Experimental: as §3

[5] = Plasma Stability Assay (Example A3), rat plasma; format: in vitro ADME; conditions: 10 μM, 37° C., prodrug remaining
Excerpt: (§4) The data is represented in the table below.

[6] = Plasma Stability Assay (Example A3), human plasma; format: in vitro ADME; conditions: 10 μM, 37° C., prodrug remaining
Excerpt: as §4

SMILES | Conversion (%) ([1]; 1 min) | Conversion (%) ([1]; 5 min) | Conversion (%) ([1]; 30 min) | Conversion (%) ([1]; 1 h) | Conversion (%) ([1]; 4 h) | Conversion (%) ([1]; 24 h) | Conversion (%) ([2]; 1 min) | Conversion (%) ([2]; 5 min) | Conversion (%) ([2]; 30 min) | Conversion (%) ([2]; 1 h) | Conversion (%) ([2]; 4 h) | Conversion (%) ([2]; 24 h) | Prodrug (%) ([3]; 0 min) | Prodrug (%) ([3]; 15 min) | Prodrug (%) ([3]; 30 min) | Prodrug (%) ([3]; 60 min) | Prodrug (%) ([3]; 120 min) | Prodrug (%) ([3]; 240 min) | Prodrug (%) ([4]; 0 min) | Prodrug (%) ([4]; 15 min) | other results
COc1ccc([C@@]23CCC(OP(=O)(OCc4ccccc4)OCc4ccccc4)=C[C@@H]2N(C)CC3)cc1OC [Compound 319, [(3aS,7aS)-3a-(3,4-dimethoxyphenyl)-1-methyl-3,4,5,7a-tetrahydro-2H-indol-6-yl] dibenzyl phosphate] | 2 | 5 | 25 | 26 | 60 | 61 | 2 | 4 | 5 | 10 | 20 | 59 |  |  |  |  |  |  |  |  | 
COc1ccc([C@@]23CCC(OP(=O)(Oc4ccccc4)Oc4ccccc4)=C[C@@H]2N(C)CC3)cc1OC [Compound 320, [(3aS,7aS)-3a-(3,4-dimethoxyphenyl)-1-methyl-3,4,5,7a-tetrahydro-2H-indol-6-yl]diphenyl phosphate] | 0 | 0 | 0 | 0 | 0 | 0 | 0 | 0 | 0 | 0 | 0 | 0 | 100 | 58.5 | 46.5 | 30.7 | 19.4 | 11.7 | 100 | 95.7 | Prodrug (%) ([4]; 30 min): 98.5%; Prodrug (%) ([4]; 60 min): 95.7%; Prodrug (%) ([4]; 120 min): 98.2%; Prodrug (%) ([4]; 240 min): 95.3%
COc1ccc([C@@]23CCC(OC(=O)N(C)C)=C[C@@H]2N(C)CC3)cc1OC [Compound 324, [(3aS,7aS)-3a-(3,4-dimethoxyphenyl)-1-methyl-3,4,5,7a-tetrahydro-2H-indol-6-yl] N,N-dimethylcarbamate] | 0 | 0 | 0 | 0 | 0 | 0 | 0 | 0 | 0 | 0 | 0 | 0 | 100.0 | 97.4 | 94.4 | 94.9 | 92.6 | 88.9 | 100.0 | 98.2 | Prodrug (%) ([4]; 30 min): 98.7%; Prodrug (%) ([4]; 60 min): >99%; Prodrug (%) ([4]; 120 min): >99%; Prodrug (%) ([4]; 240 min): 96.5%
CCN(C)C(=O)OC1=C[C@@H]2N(C)CC[C@]2(c2ccc(OC)c(OC)c2)CC1 [Compound 326, [(3aS,7aS)-3a-(3,4-dimethoxyphenyl)-1-methyl-3,4,5,7a-tetrahydro-2H-indol-6-yl]N-ethyl-N-methyl-carbamate] | 0 | 0 | 0 | 0 | 0 | 0 | 0 | 0 | 0 | 0 | 0 | 0 | 100.0 | >99 | 96.6 | >99 | >99 | 98.5 | 100.0 | 98.2 | Prodrug (%) ([4]; 30 min): 99.9%; Prodrug (%) ([4]; 60 min): 98.4%; Prodrug (%) ([4]; 120 min): >99%; Prodrug (%) ([4]; 240 min): 93.9%
COc1ccc([C@@]23CCC(OC(=O)N4CCN(C)CC4)=C[C@@H]2N(C)CC3)cc1OC [Compound 327, [(3aS,7aS)-3a-(3,4-dimethoxyphenyl)-1-methyl-3,4,5,7a-tetrahydro-2H-indol-6-yl]4-methylpiperazine-1-carboxylate] | 0 | 0 | 0 | 0 | 0 | 0 | 0 | 0 | 0 | 0 | 0 | 0 | 100 | >99 | >99 | >99 | >99 | >99 | 100 | >99 | Prodrug (%) ([4]; 30 min): 98.9%; Prodrug (%) ([4]; 60 min): >99%; Prodrug (%) ([4]; 120 min): >99%; Prodrug (%) ([4]; 240 min): 94.4%
COc1ccc([C@@]23CCC(OP(=O)(O)O)=C[C@@H]2N(C)CC3)cc1OC [Compound 359, [(3aS,7aS)-3a-(3,4-dimethoxyphenyl)-1-methyl-3,4,5,7a-tetrahydro-2H-indol-6-yl] dihydrogen phosphate] |  |  |  |  |  |  |  |  |  |  |  |  | 100 | >99 | 82.7 | 79.0 | 50.7 | 59.1 | 100 | 69.0 | Prodrug (%) ([4]; 30 min): 65.1%; Prodrug (%) ([4]; 60 min): 50.4%; Prodrug (%) ([4]; 120 min): 32.8%; Prodrug (%) ([4]; 240 min): 25.6%
COc1ccc([C@@]23CCC(OP(=O)(O)OCOC(=O)C(C)C)=C[C@@H]2N(C)CC3)cc1OC [Compound 408, [[(3aS,7aS)-3a-(3,4-dimethoxyphenyl)-1-methyl-3,4,5,7a-tetrahydro-2H-indol-6-yl]oxy-hydroxy-phosphoryl]oxymethyl 2-methylpropanoate] |  |  |  |  |  |  |  |  |  |  |  |  |  |  |  |  |  |  |  |  | Prodrug (%) ([5]; 0 min): 100.0%; Prodrug (%) ([5]; 10 min): 63.8%; Prodrug (%) ([5]; 30 min): 29.2%; Prodrug (%) ([5]; 60 min): 8.2%; Prodrug (%) ([5]; 120 min): 0.8%; Prodrug (%) ([5]; 240 min): 0.0%; Prodrug (%) ([6]; 0 min): 100.0%; Prodrug (%) ([6]; 10 min): 94.2%; Prodrug (%) ([6]; 30 min): 82.6%; Prodrug (%) ([6]; 60 min): 69.1%; Prodrug (%) ([6]; 120 min): 45.4%; Prodrug (%) ([6]; 240 min): 23.5%
COc1ccc([C@@]23CCC(OP(=O)(O)OCOC(=O)C(C)(C)C)=C[C@@H]2N(C)CC3)cc1OC [Compound 409, [[(3aS,7aS)-3a-(3,4-dimethoxyphenyl)-1-methyl-3,4,5,7a-tetrahydro-2H-indol-6-yl]oxy-hydroxy-phosphoryl]oxymethyl 2,2-dimethylpropanoate] |  |  |  |  |  |  |  |  |  |  |  |  |  |  |  |  |  |  |  |  | Prodrug (%) ([5]; 0 min): 100.0%; Prodrug (%) ([5]; 10 min): 89.9%; Prodrug (%) ([5]; 30 min): 81.2%; Prodrug (%) ([5]; 60 min): 71.0%; Prodrug (%) ([5]; 120 min): 44.5%; Prodrug (%) ([5]; 240 min): 22.7%; Prodrug (%) ([6]; 0 min): 100.0%; Prodrug (%) ([6]; 10 min): >99%; Prodrug (%) ([6]; 30 min): 95.2%; Prodrug (%) ([6]; 60 min): 93.0%; Prodrug (%) ([6]; 120 min): 87.3%; Prodrug (%) ([6]; 240 min): 75.8%
